Data set [1] deals with Ts65Dn and control mice. The data set is described as follows: Motor coordination: rotarod. It counts as in vivo. The conditions noted are these: mice of either genotype, 20 mg/kg p.o. chronic. The method, then: (§1) For mice studies, active pharmaceutical compounds of present invention were formulated in chocolate-milk (Puleva, Barcelona, Spain). Active pharmaceutical compounds of present invention or vehicle were administered p.o. at a dose of 20 mg/kg for six weeks. Their administration was prolonged during the 30 days of the behavioral assessment.
Motor coordination was evaluated using a rotarod device (Ugo Basile; Comerio, Italy), which consists of a 37-cm-long, 3-cm diameter plastic rod that rotates at different speeds. In a single session, 4 trials with a maximum duration of 60 s each were performed. In the first three tests, the rod was rotated at constant speeds of 5, 25 and 50 rpm, respectively. The last trial consisted of an acceleration cycle, in which the rod rotated progressively faster, and the animal had to adapt to the growing demands of the test. The length of time that each animal stayed on the rotarod was recorded.

For data set [2], the target named is T1, human GABA A α2β3γ2 (Homo sapiens, UniProt P18507+P47869). The data set is described as follows: [3H]flumazenil competition binding, HEK293 cells expressing human α2β3γ2. Also noted: expressed in transfected cells; host or cells: HEK293. The conditions noted are these: for hKi α2/hKi α5: binding selectivity ratio.
For another data set, the target named is human GABA A α5β3γ2 (Homo sapiens, UniProt P18507+P31644). The data set is described as follows: Two-microelectrode voltage clamp, modulation of GABA EC10 response in Xenopus oocytes, α5β3γ2. Format: cell-based. Also noted: expressed in transfected cells; host or cells: Xenopus laevis oocytes. To be noted: % change of submaximal (EC10) response to GABA at 30×Ki. The method, then: (§2) Table 2b. […] Effect at human GABA A α5 receptors: % change of a submaximal (EC10) response to GABA determined at 30×Ki value from the flumazenil binding assay.
(§3) Subtype-selective effects were determined on cloned receptors expressed in Xenopus oocytes. Human recombinant GABA A receptors were expressed in Xenopus laevis oocytes. Current responses were evoked in two-microelectrode voltage-clamp condition by applying an EC10 of GABA before and during the co-application of the test compound. Response amplitudes in the presence of the test compound are expressed as percentage of the amplitudes before drug addition.

The target in data set [3] is T1, human GABA A α2β3γ2. The data set is described as follows: Two-microelectrode voltage clamp, modulation of GABA EC10 response in Xenopus oocytes, α2β3γ2. Set-up: expressed in transfected cells; host or cells: Xenopus laevis oocytes. To be noted: % change of EC10 GABA response at 3 μM or at 30×Ki if Ki below 0.1 μM. It counts as cell-based. The method, then:
as §2, §3

A further data set concerns the target human GABA A α3β3γ2 (Homo sapiens, UniProt P18507+P34903). The data set is described as follows: Two-microelectrode voltage clamp, modulation of GABA EC10 response in Xenopus oocytes, α3β3γ2. Format: cell-based. Also noted: expressed in transfected cells; host or cells: Xenopus laevis oocytes. The conditions noted are these: % change of EC10 GABA response at 3 μM or at 30×Ki if Ki below 0.1 μM. As for the experimental part: as §2, §3

Data set [4] relates to Ts65Dn and control mice. The data set is described as follows: Spatial learning: Morris water maze. Format: in vivo. The conditions noted are these: 20 mg/kg p.o. chronic; for Ts65Dn mice performance in MWM acquisition sessions / control mice performance in MWM acquisition sessions: vs vehicle; for latency to reach the platform during cued sessions: in Ts65Dn but not in control mice. As for the experimental part: as §1
To evaluate spatial learning the Morris Water Maze was used. The apparatus was a circular tank of 110 cm in diameter, full of water (22-24° C.) made opaque by the addition of powdered milk. Inside the tank, a platform was hidden 1 cm below the water level. Animals were tested at the end of the treatment period in 12 consecutive daily sessions: 8 acquisition sessions (platform submerged), followed by 4 cued sessions (platform visible). All trials were videotaped with a camera located 2 m above the water level. A SMART computerized tracking system (Panlab S. A., Barcelona, Spain) was used to analyze the mouse trajectories, measure escape latency, distance traveled, and swimming speed for each animal in each trial.
In the acquisition sessions (S1-S8), the platform was hidden 1 cm below the water level. From one daily session to the next, the platform was placed in a different location (E, SW, center, and NW); each position was used once every four consecutive daily sessions. Each of the 8 acquisition and 4 cued sessions (one session per day) consisted of four pairs of trials, 30-45 min apart. For each trial pair, the mice were randomly started from one of four positions (N, S, E, W), which was held constant for both trials. The first trial of a pair was terminated when the mouse located the platform or when 60 s had elapsed; the second trial commenced following a period of 20 s, during which the animal was allowed to stay on the platform. Several fixed cues outside of the maze were constantly visible from the pool.
During the cued sessions the platform was visible: the water level was 1 cm below the platform, and its position was indicated with a flag. Eight trials were performed during each session, following the same experimental procedure as in the acquisition sessions.

For data set [5], the target named is T2, human GABA A α1β2/3γ2 (Homo sapiens, UniProt P14867+P18507). The data set is described as follows: Two-microelectrode voltage clamp, modulation of GABA EC10 response in Xenopus oocytes, α1β2/3γ2. It counts as cell-based. Set-up: expressed in transfected cells; host or cells: Xenopus laevis oocytes. The conditions noted are these: % change of EC10 GABA response at 3 μM or at 30×Ki if Ki below 0.1 μM.

For data set [6], the target named is T2, human GABA A α1β2/3γ2. The data set is described as follows: [3H]flumazenil competition binding, HEK293 cells expressing human α1β2/3γ2. Also noted: expressed in transfected cells; host or cells: HEK293. The conditions noted are these: for Ki: [3H]flumazenil competition, human α1β2/3γ2, read-out: hKi α1; for hKi α1/hKi α5: binding selectivity ratio.
Data set [7] deals with hippocampal slices of Ts65Dn mice. The data set is described as follows: Long term potentiation in hippocampal slices after chronic treatment. The conditions noted are these: 20 mg/kg p.o. for six weeks, vs control mice. Format: in vivo. As for the experimental part:
The effect of chronic administration of 8581 and R1 on LTP was evaluated in the Ts65Dn mouse model of Down syndrome. 8581, R1 (20 mg/kg p.o.) or vehicle was administered for six weeks. Mice were decapitated 1 hour after the last administration and the brains were rapidly removed. The hippocampi were dissected and 400-μm slices were cut with a tissue chopper. […] Field excitatory postsynaptic potentials (fEPSPs) were recorded from the CA1 stratum radiatum with a glass micropipette (1-4 MΩ) containing 2 M NaCl and evoked by stimulation of the Schaffer collaterals with insulated bipolar platin/iridium electrodes >500 μm away from the recording electrode. The stimulus strength was adjusted to evoke fEPSPs equal to 50% of the relative maximum amplitude without superimposed population spike. After stable baseline recordings (100 μs pulse-duration, 0.033 Hz), long term potentiation (LTP) was induced by TBS (10 trains of 5 pulses at 100 Hz and intervals of 200 ms). The duration of the stimulation pulses was doubled during the tetanus. After 20 min of baseline recording, LTP was induced and recorded for 80 min in each individual hippocampal slice. […] For the analysis, fEPSP slopes were expressed as a percentage of the baseline values recorded. Results from several slices were expressed as mean±SEM. […]

Where two headings read alike, the source gives them in different places.

As to `FC(F)c1ncn2c1Cn1ncnc1-c1cc(Br)ccc1-2` [Compound 8581, 3-Bromo-10-difluoromethyl-9H-imidazo[1,5-a][1,2,4]triazolo[1,5-d][1,4]benzodiazepine], in the data set with Ts65Dn and control mice [1], the “motor coordination in the rotarod” value is “not modified”. Moreover, at human GABA A α2β3γ2 [2] ([3H]flumazenil competition, human α2β3γ2, read-out: hKi α2), the Ki was determined as 185 nM. Besides, on human GABA A α2β3γ2 [2], the “hKi α2/hKi α5” value is listed as 40. Moreover, the “Efficacy GABA A α5β3γ2” value on human GABA A α5β3γ2 is on record as −46%. For the same compound, the “Efficacy GABA A α2β3γ2” value at human GABA A α2β3γ2 [3] is given as −11%. Moreover, the “Efficacy GABA A α3β3γ2” value on human GABA A α3β3γ2 is −1%. Besides, in the data set on Ts65Dn and control mice [4], the “difference between Ts65Dn and control learning curves in MWM” value is “reduced”; the “Ts65Dn mice performance in MWM acquisition sessions” value is reported as “significantly improved Ts65Dn mice performance”; the “control mice performance in MWM acquisition sessions” value is given as “did not significantly affect control mice performance”; the “latency to reach the platform during cued sessions” value is reported as “reduced the latency to reach the platform”. The “Efficacy GABA A α1β2/3γ2” value at human GABA A α1β2/3γ2 [5] is reported as −1%. On human GABA A α1β2/3γ2 [6], the Ki is 174 nM and the “hKi α1/hKi α5” value is on record as 38. Further, the “LTP induced in hippocampal slices of treated Ts65Dn animals” value in data set [7] is “not different from that induced in hippocampal slices of control mice”.

For `Cc1onc(-c2ccc(F)cc2)c1COc1ccc(C(=O)N2CCS(=O)(=O)CC2)cn1` [Compound R1, (1,1-Dioxo-1,6-thiomorpholin-4-yl)-{6-[3-(4-fluoro-phenyl)-5-methyl-isoxazol-4-ylmethoxy]-pyridin-3-yl}-methanone], the “motor coordination in the rotarod” value with Ts65Dn and control mice [1] was “not modified”. Besides, on human GABA A α2β3γ2 [2], the Ki is 502 nM and the “hKi α2/hKi α5” value is on record as 107. In addition, at human GABA A α5β3γ2, the “Efficacy GABA A α5β3γ2” value is given as −39%. On human GABA A α2β3γ2 [3], the “Efficacy GABA A α2β3γ2” value is reported as −6%. Besides, the “Efficacy GABA A α3β3γ2” value on human GABA A α3β3γ2 was −2%. Also, in the data set on Ts65Dn and control mice [4], the “difference between Ts65Dn and control learning curves in MWM” value is “reduced”; the “Ts65Dn mice performance in MWM acquisition sessions” value is given as “improved Ts65Dn mice cognition”; the “control mice performance in MWM acquisition sessions” value is “did not significantly affect control mice performance”; the “latency to reach the platform during cued sessions” value is reported as “reduced the latency to reach the platform”. The “Efficacy GABA A α1β2/3γ2” value at human GABA A α1β2/3γ2 [5] is listed as −4%. For the same compound, on human GABA A α1β2/3γ2 [6], the Ki is 985 nM and the “hKi α1/hKi α5” value was found to be 209. Further, in data set [7], the “LTP induced in hippocampal slices of treated Ts65Dn animals” value is recorded as “not different from that induced in hippocampal slices of control mice”.

Source of the values: US8835425B2, “Use of selective GABA A α5 negative allosteric modulators for the treatment of central nervous system conditions” (Hoffmann-La Roche Inc., priority 2010, dated 2014).
